ChEMBL document CHEMBL4765407, “Design, synthesis and high antitumor potential of new unsymmetrical bisacridine derivatives towards human solid tumors, specifically pancreatic cancers and their unique ability to stabilize DNA G-quadruplexes” (Eur J Med Chem, 2020)

Assays:
[1] = tested on: DU-145; assay: Cytotoxicity against human DU-145 cells assessed as reduction in cell viability measured after 72 hrs by SRB assay; format: functional, cell-based; details: DU-145, 72 h
[2] = tested on: HT-29; assay: Cytotoxicity against human HT-29 cells assessed as reduction in cell viability measured after 72 hrs by SRB assay; format: functional, cell-based; details: HT-29, 72 h
[3] = tested on: MDA-MB-231; assay: Cytotoxicity against human MDA-MB-231 cells assessed as reduction in cell viability measured after 72 hrs by SRB assay; format: functional, cell-based; details: MDA-MB-231, 72 h
[4] = tested on: PANC-1; assay: Cytotoxicity against human PANC-1 cells assessed as reduction in cell viability measured after 72 hrs by SRB assay; format: functional, cell-based; details: PANC-1, 72 h
[5] = tested on: LNCaP; assay: Cytotoxicity against human LNCaP cells assessed as reduction in cell viability measured after 72 hrs by SRB assay; format: functional, cell-based
[6] = tested on: W256; assay: Antitumour activity against Walker 256 adenocarcinoma cells implanted in Wistar rat assessed as increase in animal survival rate by measuring T/C ratio at 40 mg/kg, ip qd for 3 days administered on day 3,4,5 after tumor cell transplantation; format: functional; details: time 3 day
[7] = tested on: NCI-H460; assay: Cytotoxicity against human NCI-H460 cells assessed as reduction in cell viability measured after 72 hrs by SRB assay; format: functional, cell-based; details: NCI-H460, 72 h
[8] = tested on: W256; assay: Antitumour activity against Walker 256 adenocarcinoma cells implanted in Wistar rat assessed as increase in animal survival rate by measuring T/C ratio at 20 mg/kg, ip qd for 3 days administered on day 3,4,5 after tumor cell transplantation; format: functional; details: time 3 day
[9] = tested on: HCT-116; assay: Cytotoxicity against human HCT-116 cells assessed as reduction in cell viability measured after 72 hrs by SRB assay; format: functional, cell-based; details: HCT-116, 72 h
[10] = tested on: W256; assay: Antitumour activity against Walker 256 adenocarcinoma cells implanted in Wistar rat assessed as increase in animal survival rate by measuring T/C ratio at 5 mg/kg, ip qd for 3 days administered on day 3,4,5 after tumor cell transplantation; format: functional; details: time 3 day
[11] = tested on: MIA PaCa-2; assay: Cytotoxicity against human MIA PaCa-2 cells assessed as reduction in cell viability measured after 72 hrs by SRB assay; format: functional, cell-based; details: MIA PaCa-2, 72 h
[12] = tested on: W256; assay: Antitumour activity against Walker 256 adenocarcinoma cells implanted in Wistar rat assessed as increase in animal survival rate by measuring T/C ratio at 1.25 mg/kg, ip qd for 3 days administered on day 3,4,5 after tumor cell transplantation; format: functional; details: time 3 day
[13] = tested on: W256; assay: Antitumour activity against Walker 256 adenocarcinoma cells implanted in Wistar rat assessed as increase in animal survival rate by measuring T/C ratio at 10 mg/kg, ip qd for 3 days administered on day 3,4,5 after tumor cell transplantation; format: functional; details: time 3 day

How did the IC50 [1] turn out when `Cc1ccc(NCCCN(C)CCCNc2c3ccccc3nc3cccc([N+](=O)[O-])c23)c2c(=O)c3ccccc3[nH]c12` was run?
The IC50 was 25 nM.

What about the IC50 [2] of the same compound?
The IC50 was 49 nM.

What about the IC50 [3] of the same compound?
Its IC50 is 39 nM.

And the IC50 [4]?
Its IC50 is 40 nM.

With `Cc1ccc([N+](=O)[O-])c2c(NCCNCCNc3ccc(C)c4[nH]c5ccccc5c(=O)c34)c3ccccc3nc12` as the compound, how does the IC50 [1] read?
The IC50 was 599 nM.

And the IC50 [5]?
The IC50 was 250 nM.

What about the IC50 [2] of the same compound?
Its IC50 is 413 nM.

And the T/C [6]?
Its T/C is 250%.

For `Cc1ccc([N+](=O)[O-])c2c(NCCCN3CCN(CCCNc4ccc([N+](=O)[O-])c5[nH]c6ccc(O)cc6c(=O)c45)CC3)c3ccccc3nc12`, which IC50 [1] is on record?
The IC50 was 61 nM.

What about the IC50 [5] of the same compound?
The IC50 was 4030 nM.

What about the IC50 [2] of the same compound?
The IC50 was 233 nM.

And the IC50 [7]?
Its IC50 is 47 nM.

What about the T/C [8] of the same compound?
The T/C was 250%.

Which IC50 [4] does the source give for `Nc1ccn([C@@H]2O[C@H](CO)[C@@H](O)C2(F)F)c(=O)n1` [GEMCITABINE] here?
The IC50 was 22 nM.

With `Cc1ccc([N+](=O)[O-])c2c(NCCCN(C)CCCNc3ccc(C)c4[nH]c5ccccc5c(=O)c34)c3ccccc3nc12` as the compound, how does the IC50 [1] read?
The IC50 was 190 nM.

What about the IC50 [5] of the same compound?
Its IC50 is 197 nM.

What about the IC50 [2] of the same compound?
Its IC50 is 123 nM.

What about the IC50 [7] of the same compound?
Its IC50 is 71 nM.

What about the IC50 [9] of the same compound?
Its IC50 is 120 nM.

And the T/C [10]?
The T/C was 1300%.

How did the IC50 [1] turn out when `O=c1c2ccccc2[nH]c2c([N+](=O)[O-])ccc(NCCCNCCNCCCNc3c4ccccc4nc4cccc([N+](=O)[O-])c34)c12` was run?
Its IC50 is 55 nM.

And the IC50 [4]?
The IC50 was 60 nM.

And the IC50 [11]?
The IC50 was 46 nM.

And the T/C [12]?
Its T/C is 250%.

How did the IC50 [1] turn out when `Cc1ccc([N+](=O)[O-])c2c(NCCCN(C)CCCNc3ccc([N+](=O)[O-])c4[nH]c5ccc(O)cc5c(=O)c34)c3ccccc3nc12` was run?
The IC50 was 73 nM.

And the IC50 [5]?
The IC50 was 377 nM.

What about the IC50 [2] of the same compound?
Its IC50 is 200 nM.

And the IC50 [7]?
The IC50 was 46 nM.

What about the T/C [8] of the same compound?
Its T/C is 400%.

With `Cc1ccc([N+](=O)[O-])c2c(NCCCNCCCNc3ccc([N+](=O)[O-])c4[nH]c5ccc(O)cc5c(=O)c34)c3ccccc3nc12` as the compound, how does the IC50 [1] read?
The IC50 was 78 nM.

What about the IC50 [5] of the same compound?
Its IC50 is 123 nM.

And the IC50 [2]?
The IC50 was 129 nM.

What about the IC50 [7] of the same compound?
The IC50 was 73 nM.

What about the IC50 [9] of the same compound?
Its IC50 is 88 nM.

What about the T/C [13] of the same compound?
Its T/C is 1500%.
